For one assay, the system named is Jurkat T cells. Briefly: c-Myc mRNA in Jurkat T cells treated with thrombospondin-1 or CD47-binding peptide (real time PCR). The format is cell-based, human. The following applies: for c-Myc levels (FIG. 7E): CD47-binding peptide vs control peptide. Here is the method:
(§1) RNA extraction and Real Time PCR: Total RNA was extracted using TRIzol® reagent (Invitrogen, Rockville, Md.) 24-36 hours after transfection or as indicated. Harvested mouse tissues were frozen in liquid nitrogen or placed into RNA Later™ RNA Stabilization Reagent (Ambion, Life Technologies, Grand Island, N.Y.). Whole organs (lungs, spleen, kidney, testis, skeletal muscle, brain, heart, and liver) were homogenized in TRIzol® reagent, and RNA was isolated, cDNA was prepared using First Maxima First Strand cDNA Synthesis kit for RT-qPCR (Fermentas Life Sciences, Glen Burnie, Md.). Real Time PCR was performed using the primers listed herein as SEQ ID NOs: 3-34, and SYBR Green PCR master reaction mix (AB applied Sciences, Life Technologies, Grand Island, N.Y.) on an MJ Research OPTICON I instrument (Bio-Rad) with the following amplification program: 95° C. for 15 minutes, followed by 40 cycles of 95° C. for 15 seconds, 58° C. for 20 seconds, 72° C. for 25 seconds, and 7° C. for 1 minute. Melting curves were performed for each product from 30° C. to 95° C. reading every 0.5° C. with a 6-second dwell time. The fold changes in mRNA expression were calculated by normalizing to hypoxanthine phosphoribosyltransferase (HPRT1) and TATA-box binding protein associated factor (TAF9) for mouse tissues and endothelial cells, or β-2 microglobulin (B2M) mRNA levels for spleen and isolated splenocytes. B2M was used for normalization of mRNA levels in human cells. Note that the total RNA yield per cell was higher for all CD47-null and CD47-deficient cells and tissues as compared to WT.
Modulation of stem cell transcription factors by thrombospondin-1: Jurkat and JinB8 cells were centrifuged and re-suspended in RPMI+1% FBS at 10^6 cells/ml. Cells were plated in 12 well plates and treated with 1 μg/ml (2.2 nM) TSP1 using the indicated times and concentrations, and total RNA was isolated using TRIzol® reagent.
In general terms: Quantitative PCR measures a nucleic acid by following its amplification.

For the next assay, the system named is WT Jurkat T cells. Briefly: QPCR analysis of c-Myc mRNA in WT Jurkat T cells treated with CD47 binding peptides. The format is cell-based, human. The following applies: for c-Myc expression (FIG. 21B): 1 μM or 10 μM. Here is the method:
FIGS. 21A and B are a pair of graphs showing QPCR analysis of c-Myc mRNA expression. WT Jurkat T cells were treated with the CD47 binding peptide 459 (also known as peptide 4N1) or control peptide 761 at 1 μM or 0.1 μM (FIG. 21A). WT Jurkat T cells were also treated with the CD47-binding peptide 7N3 or the control peptide 604 at 1 μm or 10 μM (FIG. 21B).
as §1

In assay [1] the test system is HUVEC. Briefly: MTS proliferation assay of treated HUVEC. The format is cell-based, human. The following applies: 6 days post-treatment. Here is the method:
Cell proliferation assays: Equal numbers of mouse lung endothelial cells from WT and CD47 (Passage 1) were plated in 96 well plates using RPMI+1% FBS. After 72 hours, net cell proliferation was assessed by the increase in formazan absorbance versus controls assessed at time 0 using Cell Titer 96R aqueous MTS kit (Promega, Madison, Wis.). DNA synthesis was measured using a BrdU Assay (EMD Biosciences, Billerica, Mass.).
Proliferative capacities of the treated HUVEC (CD47 morpholino, 7N3 peptide, or 604 control peptide) were assessed using MTS assays.

Another assay deals with HUVECs. Briefly: Real-time PCR of HUVECs treated for three weeks with neural medium and 7N3 peptide or B6H12 antibody. It is filed as cell-based, human. Here is the method:
as §1, with “WT. […]” for “WT.”

The next assay relates to TSP1 null cells. Briefly: Sustained proliferation of TSP1 null murine lung endothelial cells. It is filed as cell-based, mouse. Conditions: relative to WT cells. From the text: Cell culture and reagents: Thrombospondin-1 null (Lawler et al., J Clin Invest 101, 982-992, 1998) CD47 null mice (Lindberg et al., Science 274, 795-798, 1996) extensively back-crossed onto a C57Bl/6J background and WT mice were maintained in a pathogen-free environment according to protocols approved by the NCI Animal Care and Use Committee. Mouse lung endothelial cells were isolated and their purity verified as described previously (Zhou et al., Oncogene 25, 536-545, 2006). These conditions were previously documented to reproducibly yield >95% pure endothelial cells at passage two (CD31+, smooth muscle actin-). Mouse lung endothelial cells were cultured at 37° C. with 5% CO2 using Endothelial Growth Medium-2 (EGM2) (Thermo Scientific Fisher. Inc., Waltham, Mass.). Cell populations from mouse spleens were separated using the Pan T cell Isolation (130-095-130), CD4 (L3T4) (130-049-201), CD8a (Ly-2) (130-049-401) CD11b (130-049-601), CD19 microbead kits (130-052-201) (MACS, Miltenyi Biotech Germany).
(§2) Human umbilical vein endothelial cells (HUVEC), which express CD47, normally become senescent with repeated passage in tissue culture (FIG. 16A).

For assay [2], the system named is HUVEC. The assay can be described thus: Sustained proliferation / self-renewal of HUVEC in continuous culture. The format is cell-based, human. The following applies: 7N3 10 μM; B6H12 1 μg/ml.
Text: as §2
Therefore, antisense suppression of CD47 is sufficient to induce reprogramming of primary endothelial cells of a mesodermal lineage into an ectodermal lineage.

The next assay relates to Human rTEC. The assay can be described thus: RT-PCR of self-renewal genes in human renal tubular epithelial cells. The format is cell-based. Here is the method:
FIG. 25 is a series of graphs showing that blockade of CD47 elevates self-renewal transcription factors in human renal cells. Human rTEC were treated with TSp1 (2.2 nmol/L)±a CD47 monoclonal Ab (clone B6H12, 1 μg/ml) and RT-PCR performed for the indicated targets (top, c-Myc; middle. Sox2; bottom, Klf4). Results are the mean (±S.E.M.) of three separate experiments.
TSP1 inhibits self-renewal signals in primary human renal tubular epithelial cells, and CD47 blockade therapy elevates self renewal genes in human renal cells: It is not clear what role the TSP1-CD47 signal cascade played on self-renewal signaling in specific renal cell types. We wanted to confirm in human cells that activation of CD47 inhibits self-renewal genes. Renal tubular epithelial cells (rTEC) are a primary source of injury in the kidney. Human rTEC were treated with a low concentration of exogenous TSP1 (2.2 nmol/L) and found suppression of self-renewal genes including cMyc and Sox2 and Klf4 (FIG. 25). […] Thus, in human renal cells CD47 blockade increases the stem cell-pluripotent capacity of renal cells.

For the next assay, the system named is JinB8 cells. Briefly: c-Myc mRNA in CD47-deficient JinB8 cells treated with thrombospondin-1. The format is cell-based, human. Conditions: Jurkat cells lacking CD47; at 24 hours. Here is the method:
as §1, with “B2M was used for normalization of mRNA levels in human cells. Note that the total RNA yield per cell was higher for all CD47-null and CD47-deficient cells and tissues as compared to WT.” left out

Assay [3] concerns JinB8 cells re-expressing CD47. The assay can be described thus: c-Myc expression in JinB8 cells re-expressing CD47 treated with thrombospondin-1. The format is cell-based, human. The following applies: CD47 re-expressed in JinB8 cells. As for the experimental part: JINB8 cells were transfected with CD47-V5 construct using Amaxa™ Nucleofector™ (Lonza) non-viral transfection technology. The transfection efficiency was determined by flow Cytometry. The CD47-V5 transfected cells were purified using magnetic beads bound with human CD47 antibody (B6H12). The transfected cells were loaded onto MACS column which was placed in the magnetic field of a MACS® separator (Miltenyi Biotec). The magnetic bead labeled CD47^+ cells were retained on the column. The unlabeled cells ran through and were depleted from CD47^+ cells. After removal of the column, the CD47^+ cells bound to magnetic beads were eluted. The pure population of CD47^+ cells was stably cultured using G418 (250 μg/ml). The pure population of CD47^+ and Jurkat cells were centrifuged and re-suspended in RPMI with 1% FBS at 10^6 cells/ml. Cells were plated in 12 well plates and treated with 1 μg/ml (2.2 nM) thrombospondin-1, and total RNA was isolated using TRIzol®. The relative gene expression of c-MYC was measured using GAPDH as a control.

The mark [4] stands for this setting: real-time PCR, HUVECs three weeks in neural medium, two values per treatment.

Where “and” joins values, the source holds several entries; their conditions need not be identical. Identical values can stand only once.

In the case of “FIRGGMYEGKK (Synthetic peptide 604) [compound 604]”, the “c-Myc levels (FIG. 7E)” value in the assay with Jurkat T cells is “inactive”. The “c-Myc expression (FIG. 21B)” value in the assay on WT Jurkat T cells is on record as “did not”. Besides, the “proliferation (MTS)” value in the assay on HUVEC [1] is listed as “decreased proliferation”.
For FIRVVMYEGKK (Synthetic peptide 7N3), the “c-Myc levels (FIG. 7E)” value in the assay with Jurkat T cells is reported as “suppression”. Besides, the “expression of mRNAs encoding c-Myc and other stem cell transcription factors (Sox2, Klf4, Oct4) and nestin” value in the assay with HUVECs (EBM serum free (neural basal) medium for 3 weeks, in words) is “high expression”. In the assay on HUVECs (setting [4]), the “Oct4 C(t)” value is 34.48 and 34; the “c-Myc C(t)” value was 30.19 and 18.49; the “klf4 C(t)” value is 26.31 and 26.17; the “nestin C(t)” value was 31.6104 and 31.32. For the same substance, in the assay on HUVECs (setting [4]), the “sox2 C(t)” value is 28.09 and 29. Moreover, the “c-Myc expression (FIG. 21B)” value in the assay with WT Jurkat T cells is on record as “more dramatic increase”. Further, the “proliferation (MTS)” value with HUVEC [1] is “enhanced proliferation”. Further, the proliferative response result with TSP1 null cells is “their response was less than the WT cells”. In addition, the sustained proliferation result in the assay on HUVEC [2] was “dramatically increased”.
As for “RFYVVMWK (Synthetic peptide - 4N1) [compound 459]”, the “c-Myc mRNA expression (FIG. 21A)” value with WT Jurkat T cells (0.1 μM, at 72 hours, relative to control peptide 761) is on record as “significantly increased”.
Consider “TSP1: Human TSP1 purified from the supernatant of thrombin-activated platelets; CD47 ligand”, for which, in the assay with Jurkat T cells (2.2 nM thrombospondin-1), the “c-Myc levels, time course” value is “transiently induced but then strongly inhibited”. For the same substance, the “c-MYC expression (FIG. 14D)” value in the assay on Jurkat T cells (Jurkat cells) is “reduces c-MYC expression”. In the assay on Jurkat T cells (at 24 hours), the “concentration sufficient to inhibit c-Myc expression” value is reported as “Picomolar concentrations”. Also, the “expression of self-renewal transcription genes” value with Human rTEC (TSP1 2.2 nM, low passage cells) was “decreased expression of self-renewal transcription genes”. Besides, in the assay on Human rTEC (TSP1 2.2 nmol/L, B6H12 1 μg/ml), the Klf4 expression result is given as “suppression”, the Sox2 expression entry is “suppression” and the cMyc expression result is “suppression”. Also, the “c-Myc mRNA levels” value in the assay with JinB8 cells is reported as “not significantly inhibited”. Besides, the c-Myc expression entry in [3] is given as “reduces c-MYC expression”. Moreover, the c-Myc expression entry in assay [3] (listed as thrombospondin-1) is given as “restored the ability of thrombospondin-1 to inhibit c-Myc expression”.

The values above are taken from patent publication US11692175B2, “Methods for generation of pluripotent and multipotent cells” (The USA, as represented by the Secretary, Dept. of Health …, priority 2012, dated 2023).
